From patent publication US10758534B2 (Vertex Pharmaceuticals Incorporated, priority 2014, dated 2020) come the findings set out here.

SMILES strings stand for the structures.

The target of the first experiment is T1, F508del (Homo sapiens, UniProt P13569, DEL508-508).
T1 construct: expressed in transfected cells
T1 sequence (P13569 with tags, fused parts or gaps DEL508-508): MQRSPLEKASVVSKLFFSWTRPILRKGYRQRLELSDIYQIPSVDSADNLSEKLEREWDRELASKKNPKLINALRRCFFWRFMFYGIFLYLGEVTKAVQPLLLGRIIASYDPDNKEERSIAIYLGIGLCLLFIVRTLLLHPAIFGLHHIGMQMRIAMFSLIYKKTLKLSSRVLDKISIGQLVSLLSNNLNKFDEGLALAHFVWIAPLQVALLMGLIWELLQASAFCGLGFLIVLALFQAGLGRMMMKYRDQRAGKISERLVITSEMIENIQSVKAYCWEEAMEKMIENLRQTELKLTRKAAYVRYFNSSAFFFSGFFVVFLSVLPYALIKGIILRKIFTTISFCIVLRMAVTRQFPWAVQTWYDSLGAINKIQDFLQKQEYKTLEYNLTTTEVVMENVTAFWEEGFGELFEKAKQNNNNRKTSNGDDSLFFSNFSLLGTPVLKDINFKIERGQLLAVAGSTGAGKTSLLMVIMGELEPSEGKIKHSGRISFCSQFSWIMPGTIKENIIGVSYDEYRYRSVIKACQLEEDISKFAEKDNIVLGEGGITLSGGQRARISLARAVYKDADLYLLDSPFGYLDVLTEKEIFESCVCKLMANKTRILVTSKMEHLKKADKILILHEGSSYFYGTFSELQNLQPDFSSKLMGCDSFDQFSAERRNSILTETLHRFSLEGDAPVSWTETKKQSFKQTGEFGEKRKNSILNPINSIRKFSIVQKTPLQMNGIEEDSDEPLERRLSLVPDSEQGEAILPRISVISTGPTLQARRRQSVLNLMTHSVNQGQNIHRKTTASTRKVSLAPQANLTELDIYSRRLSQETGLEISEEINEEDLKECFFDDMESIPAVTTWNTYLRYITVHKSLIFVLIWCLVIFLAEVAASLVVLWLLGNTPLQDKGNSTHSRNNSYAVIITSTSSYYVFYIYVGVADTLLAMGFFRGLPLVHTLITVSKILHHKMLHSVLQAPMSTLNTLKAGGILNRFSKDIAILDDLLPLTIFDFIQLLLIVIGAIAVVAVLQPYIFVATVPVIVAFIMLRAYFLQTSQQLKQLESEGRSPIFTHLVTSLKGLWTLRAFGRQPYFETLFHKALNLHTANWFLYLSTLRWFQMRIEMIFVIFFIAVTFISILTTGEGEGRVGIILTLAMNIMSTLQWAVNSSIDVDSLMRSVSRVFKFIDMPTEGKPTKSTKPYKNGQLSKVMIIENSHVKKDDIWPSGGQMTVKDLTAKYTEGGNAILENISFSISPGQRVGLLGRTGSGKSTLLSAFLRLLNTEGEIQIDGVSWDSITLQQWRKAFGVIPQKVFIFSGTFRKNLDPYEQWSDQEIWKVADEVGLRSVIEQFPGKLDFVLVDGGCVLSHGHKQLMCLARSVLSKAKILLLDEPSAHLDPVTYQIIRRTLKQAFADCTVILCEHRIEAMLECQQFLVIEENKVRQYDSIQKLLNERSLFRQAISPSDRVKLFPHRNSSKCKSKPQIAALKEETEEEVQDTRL
Description: Protocol 2: FRET membrane potential optical assay (VIPR), identification of correction compounds. The class given is cell-based. Particulars: F508del CFTR modulator activity; compounds of Table 1; read-out: EC30. In a few lines:
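Single-addition HTS format: F508del-expressing NIH3T3 cells pre-incubated 16 hrs at 37° C. ± compound, with 27° C. culture as positive control. Channel activation by forskolin 10 μM and genistein 20 μM upon switch to gluconate bath, pH 7.4; read-out is FRET-based depolarization signal.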
On to `CC1CN(c2ncccc2C(=O)NS(=O)(=O)c2cccc(NCCN(C)C(=O)OC(C)(C)C)n2)C(C)(C)C1` (stereo not shown) [Compound 2400, tert-butyl N-methyl-N—[2-[[6-[[2-(2,2,4-trimethylpyrrolidin-1-yl)pyridine-3-carbonyl]sulfamoyl]-2-pyridyl]amino]ethyl]carbamate], for which the EC30 (as a rule, the concentration needed for an effect of 30%) was in the range of 3000 to 10000 nM.

`CC1CN(c2ncccc2C(=O)NS(=O)(=O)c2cccc(N(C)CC(=O)OC(C)(C)C)n2)C(C)(C)C1` (stereo not shown) [Compound 2251, tert-butyl 2-[methyl-[6-[[2-(2,2,4-trimethylpyrrolidin-1-yl)pyridine-3-carbonyl]sulfamoyl]-2-pyridyl]amino]acetate]: the EC30 is under 3000 nM.

For `CC1CN(c2ncc(-c3ccc(N(C)C)cc3)cc2C(=O)NS(=O)(=O)c2cccc(N)n2)C(C)(C)C1` (stereo not shown) [Compound 2288, N-[(6-amino-2-pyridyl)sulfonyl]-5-(4-dimethylaminophenyl)-2-(2,2,4-trimethylpyrrolidin-1-yl)pyridine-3-carboxamide], the EC30 was under 3000 nM.

Turning to `CC1CN(c2ncccc2C(=O)NS(=O)(=O)c2cccc(OCCC3CCNCC3)n2)C(C)(C)C1` (stereo not shown) [Compound 2452, N—[[6-[2-(4-piperidyl)ethoxy]-2-pyridyl]sulfonyl]-2-(2,2,4-trimethylpyrrolidin-1-yl)pyridine-3-carboxamide], the concentration for an effect of 30% (EC30) is under 3000 nM.

As for `CC1CN(c2ncccc2C(=O)NS(=O)(=O)c2cccc(NCc3cccs3)n2)C(C)(C)C1` (stereo not shown) [Compound 2004, N—[[6-(2-thienylmethylamino)-2-pyridyl]sulfonyl]-2-(2,2,4-trimethylpyrrolidin-1-yl)pyridine-3-carboxamide], the concentration for an effect of 30% (EC30) was under 3000 nM.

In the case of `C[C@@H]1CN(c2nc(-c3cccc(C(F)(F)F)c3)ccc2C(=O)NS(=O)(=O)c2cccnc2N)C(C)(C)C1` [Compound 2593, N-[(2-amino-3-pyridyl)sulfonyl]-6-[3-(trifluoromethyl)phenyl]-2-[(4S)-2,2,4-trimethylpyrrolidin-1-yl]pyridine-3-carboxamide], the EC30 is under 3000 nM.

Turning to `Cc1ccc(F)c(-c2ccc(C(=O)NS(=O)(=O)N3CC[C@H](N)C3)c(N3C[C@@H](C)CC3(C)C)n2)c1` [Compound 2016, N-[(3S)-3-aminopyrrolidin-1-yl]sulfonyl-6-(2-fluoro-5-methyl-phenyl)-2-[(4S)-2,2,4-trimethylpyrrolidin-1-yl]pyridine-3-carboxamide], the EC30 lay within 3000 to 10000 nM.

On to `CC1CN(c2ncc(-c3ccccc3C#N)cc2C(=O)NS(=O)(=O)c2cccc(N)n2)C(C)(C)C1` (stereo not shown) [Compound 2584, N-[(6-amino-2-pyridyl)sulfonyl]-5-(2-cyanophenyl)-2-(2,2,4-trimethylpyrrolidin-1-yl)pyridine-3-carboxamide], for which the concentration for an effect of 30% (EC30) lay within 3000 to 10000 nM.

`CC1CN(c2ncccc2C(=O)NS(=O)(=O)c2cccc(N3CCc4ccccc43)n2)C(C)(C)C1` (stereo not shown) [Compound 2255, N-[(6-indolin-1-yl-2-pyridyl)sulfonyl]-2-(2,2,4-trimethylpyrrolidin-1-yl)pyridine-3-carboxamide]: the 30% effect concentration (EC30) was under 3000 nM.

Regarding `CC(C)COc1cc(F)cc(-c2ccc(C(=O)NS(=O)(=O)c3cccc(N)n3)c(N3CC(C)CC34CCC4)n2)c1` (single isomer, unassigned) [Compound 2269, N-[(6-amino-2-pyridyl)sulfonyl]-6-(3-fluoro-5-isobutoxy-phenyl)-2-(6-methyl-8-azaspiro[3.4]octa N-8-yl)pyridine-3-carboxamide], the concentration for an effect of 30% (EC30) was under 3000 nM.

`Cc1cccc(N2CCN(c3cccc(S(=O)(=O)NC(=O)c4cccnc4N4CC(C)CC4(C)C)n3)CC2)n1` (stereo not shown) [Compound 2285, N—[[6-[4-(6-methyl-2-pyridyl)piperazin-1-yl]-2-pyridyl]sulfonyl]-2-(2,2,4-trimethylpyrrolidin-1-yl)pyridine-3-carboxamide]: the EC30 was under 3000 nM.

For the compound `COc1cccc(Oc2cccc(S(=O)(=O)NC(=O)c3cccnc3N3CC(C)CC3(C)C)n2)c1` (stereo not shown) [Compound 2551, N—[[6-(3-methoxyphenoxy)-2-pyridyl]sulfonyl]-2-(2,2,4-trimethylpyrrolidin-1-yl)pyridine-3-carboxamide], the EC30 was under 3000 nM.

With `CC1CN(c2ncccc2C(=O)NS(=O)(=O)c2cccc(N3Cc4ccccc4C[C@H]3C(=O)O)n2)C(C)(C)C1` (stereo partly drawn) [Compound 2321, (3S)-2-[6-[[2-(2,2,4-trimethylpyrrolidin-1-yl)pyridine-3-carbonyl]sulfamoyl]-2-pyridyl]-3,4-dihydro-1H-isoquinoline-3-carboxylic acid], the EC30 is 3000 to 10000 nM.

With `CC1CN(c2ncccc2C(=O)NS(=O)(=O)c2cccc(N3CCC(Cc4ccccc4)C3)n2)C(C)(C)C1` (stereo not shown) [Compound 2123, N—[[6-(3-benzylpyrrolidin-1-yl)-2-pyridyl]sulfonyl]-2-(2,2,4-trimethylpyrrolidin-1-yl)pyridine-3-carboxamide], the concentration for an effect of 30% (EC30) was under 3000 nM.

The experiment is the same for the next values; noted with them: Table 3; compounds of Table 1 as modulators of CFTR activity; protocol not stated.
Turning to `CC(C)COc1cc(F)cc(-c2ccc(C(=O)NS(=O)(=O)c3cccc(N)n3)c(N(C)C3CCC3)n2)c1` [Compound 683, N-[(6-amino-2-pyridyl)sulfonyl]-2-[cyclobutyl(methyl)amino]-6-(3-fluoro-5-isobutoxy-phenyl)pyridine-3-carboxamide], the EC30 result is recorded as “+++ (“+++” means <3 uM)”.

Regarding `Cc1cc(C)c(Oc2nc(-c3ccccc3)ccc2C(=O)NS(=O)(=O)c2cccc(N)c2)c(C)c1` [Compound 231, N-(3-aminophenyl)sulfonyl-6-phenyl-2-(2,4,6-trimethylphenoxy)pyridine-3-carboxamide], the 30% effect concentration (EC30) result is “+++ (“+++” means <3 uM)”.

Take `Cc1cc(C)c(Oc2nc(C(C)(C)C)ccc2C(=O)NS(=N)(=O)c2cccc(N)c2)c(C)c1` (single isomer, unassigned) [Compound 19, N-[(3-aminophenyl)sulfonimidoyl]-6-tert-butyl-2-(2,4,6-trimethylphenoxy)pyridine-3-carboxamide]: the EC30 result is recorded as “+++ (“+++” means <3 uM)”.

`COc1cccc(S(=O)(=O)NC(=O)c2cc3ccccc3n2Cc2c(C)cc(C)cc2C)c1` [Compound 335, N-(3-methoxyphenyl)sulfonyl-1-[(2,4,6-trimethylphenyl)methyl]indole-2-carboxamide]: the EC30 result is “+++ (“+++” means <3 uM)”.

Turning to `Cc1cc(C)c(Oc2nc(-c3ccccc3)ccc2C(=O)NS(=O)(=O)c2cccc(N)n2)c(C)c1` [Compound 203, N-[(6-amino-2-pyridyl)sulfonyl]-6-phenyl-2-(2,4,6-trimethylphenoxy)pyridine-3-carboxamide], the 30% effect concentration (EC30) entry is recorded as “+++ (“+++” means <3 uM)”.

Regarding `CC(C)COc1cc(F)cc(-c2ccc(C(=O)NS(=O)(=O)c3ccc[nH]c3=O)c(N3[C@H](C)CC[C@@H]3C)n2)c1` [Compound 307, 2-(2,5-dimethylpyrrolidin-1-yl)-6-(3-fluoro-5-isobutoxy-phenyl)-N-[(2-oxo-1H-pyridin-3-yl)sulfonyl]pyridine-3-carboxamide], the EC30 result is listed as “+++ (“+++” means <3 uM)”.

Consider `Cc1cc(C)c(Cn2c(C(=O)NS(=O)(=O)c3ccccc3)cc3cc(Cl)ccc32)c(C)c1` [Compound 137, N-(benzenesulfonyl)-5-chloro-1-[(2,4,6-trimethylphenyl)methyl]indole-2-carboxamide], for which the EC30 result is “+++ (“+++” means <3 uM)”.

Take `CC(C)COc1cc(F)cc(-c2ccc(C(=O)NS(=O)(=O)c3cccc(N)n3)c(N3CC[C@@H](C)C3(C)C)n2)c1` [Compound 657, N-[(6-amino-2-pyridyl)sulfonyl]-6-(3-fluoro-5-isobutoxy-phenyl)-2-[(3R)-2,2,3-trimethylpyrrolidin-1-yl]pyridine-3-carboxamide]: the concentration for an effect of 30% (EC30) result is reported as “+++ (“+++” means <3 uM)”.

As to `CC(C)COc1cc(F)cc(-c2ccc(C(=O)NS(=O)(=O)c3cccc(N)n3)c(N3CCCCCC3)n2)c1` [Compound 418, N-[(6-amino-2-pyridyl)sulfonyl]-2-(azepan-1-yl)-6-(3-fluoro-5-isobutoxy-phenyl)pyridine-3-carboxamide], the concentration for an effect of 30% (EC30) entry is on record as “+++ (“+++” means <3 uM)”.

Consider `CC(C)COc1cc(F)cc(-c2ccc(C(=O)NS(=O)(=O)c3cccc(N)n3)c(N3CC4CC4C3C(F)(F)F)n2)c1` (stereo not shown) [Compound 490, N-[(6-amino-2-pyridyl)sulfonyl]-6-(3-fluoro-5-isobutoxy-phenyl)-2-[4-(trifluoromethyl)-3-azabicyclo[3.1.0]hexan-3-yl]pyridine-3-carboxamide], for which the EC30 result is given as “+++ (“+++” means <3 uM)”.

Consider `CC(C)Oc1ccc(-c2nc(N3[C@H](C)CC[C@@H]3C)c(C(=O)NS(=O)(=O)c3cccc(N)n3)cc2Br)cn1` [Compound 390, N-[(6-amino-2-pyridyl)sulfonyl]-5-bromo-2-[(2S,5R)-2,5-dimethylpyrrolidin-1-yl]-6-(6-isopropoxy-3-pyridyl)pyridine-3-carboxamide], for which the EC30 entry was “+++ (“+++” means <3 uM)”.

In the case of `CC(C)Oc1ccc(-c2ccc(C(=O)NS(=O)(=O)c3cccc(N)n3)c(N3CCCCC3c3ccccc3)n2)cn1` (stereo not shown) [Compound 731, N-[(6-amino-2-pyridyl)sulfonyl]-6-(6-isopropoxy-3-pyridyl)-2-(2-phenyl-1-piperidyl)pyridine-3-carboxamide], the EC30 entry was “+++ (“+++” means <3 uM)”.

As to `CC1CCCN(c2nc(-c3ccc(OC(C)C)nc3)ccc2C(=O)NS(=O)(=O)c2cccc(N)n2)C1` (stereo not shown) [Compound 321, N-[(6-amino-2-pyridyl)sulfonyl]-6-(6-isopropoxy-3-pyridyl)-2-(3-methyl-1-piperidyl)pyridine-3-carboxamide], the concentration for an effect of 30% (EC30) entry is “+++ (“+++” means <3 uM)”.

As to `CC(C)Oc1ccc(-c2ccc(C(=O)NS(=O)(=O)c3cccc(N)n3)c(N3CCC4CCCC43)n2)cn1` (stereo not shown) [Compound 732, 2-(3,3a,4,5,6,6a-hexahydro-2H-cyclopenta[b]pyrrol-1-yl)-N-[(6-amino-2-pyridyl)sulfonyl]-6-(6-isopropoxy-3-pyridyl)pyridine-3-carboxamide], the 30% effect concentration (EC30) entry was “+++ (“+++” means <3 uM)”.
